Experimental data: ChEMBL document CHEMBL1134991, “Alpha(1)-adrenoceptor activation: a comparison of 4-(anilinomethyl)imidazoles and 4-(phenoxymethyl)imidazoles to related 2-imidazolines” (Bioorg Med Chem Lett, 2002)

What was measured:
[1] = molecular target: T1, Alpha-1D adrenergic receptor (Homo sapiens) (UniProt P25100); assay: Activation of human alpha-1D-adrenoceptor receptor expressed in rat-1 fibroblasts relative to phenylephrine; assay type: functional
T1 sequence (whole entry): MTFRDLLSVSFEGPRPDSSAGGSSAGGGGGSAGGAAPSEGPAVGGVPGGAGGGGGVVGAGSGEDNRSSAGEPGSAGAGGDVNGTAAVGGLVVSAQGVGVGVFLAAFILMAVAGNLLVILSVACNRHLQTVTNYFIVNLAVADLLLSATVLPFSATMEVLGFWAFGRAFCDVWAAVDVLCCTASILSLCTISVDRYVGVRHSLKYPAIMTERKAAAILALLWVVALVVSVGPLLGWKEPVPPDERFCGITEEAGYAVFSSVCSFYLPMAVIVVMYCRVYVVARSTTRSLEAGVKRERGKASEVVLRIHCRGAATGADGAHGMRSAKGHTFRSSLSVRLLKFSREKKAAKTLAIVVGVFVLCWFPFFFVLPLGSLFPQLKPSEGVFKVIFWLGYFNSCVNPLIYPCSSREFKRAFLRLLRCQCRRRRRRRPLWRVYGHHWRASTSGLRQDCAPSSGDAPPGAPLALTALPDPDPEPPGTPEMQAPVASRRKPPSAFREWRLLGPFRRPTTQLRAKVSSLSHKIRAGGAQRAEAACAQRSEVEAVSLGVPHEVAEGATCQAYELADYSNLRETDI

[2] = molecular target: T2, Alpha-1B adrenergic receptor (Homo sapiens, UniProt P35368); assay: Activation of human alpha-1B adrenergic receptors expressed in rat-1 fibroblasts; assay type: functional
T2 sequence (P35368 whole entry): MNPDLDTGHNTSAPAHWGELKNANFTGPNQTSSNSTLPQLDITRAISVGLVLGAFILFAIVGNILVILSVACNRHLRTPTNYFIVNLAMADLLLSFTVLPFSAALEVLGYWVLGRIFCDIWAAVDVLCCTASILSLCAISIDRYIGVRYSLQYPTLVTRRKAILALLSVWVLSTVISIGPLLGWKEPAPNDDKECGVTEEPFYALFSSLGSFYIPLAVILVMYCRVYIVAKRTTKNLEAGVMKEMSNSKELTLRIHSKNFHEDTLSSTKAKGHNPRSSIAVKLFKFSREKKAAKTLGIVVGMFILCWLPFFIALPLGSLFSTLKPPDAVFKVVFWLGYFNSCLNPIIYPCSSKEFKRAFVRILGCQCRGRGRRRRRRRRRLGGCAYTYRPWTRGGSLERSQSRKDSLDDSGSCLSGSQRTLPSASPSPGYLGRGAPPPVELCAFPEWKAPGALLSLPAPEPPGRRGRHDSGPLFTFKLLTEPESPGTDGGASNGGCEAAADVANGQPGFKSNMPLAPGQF

[3] = molecular target: T3, Alpha-1A adrenergic receptor (Homo sapiens, UniProt P35348); assay: Activation of human alpha-1A adrenergic receptor expressed in rat-1 fibroblasts; assay type: functional
T3 sequence (P35348 whole entry): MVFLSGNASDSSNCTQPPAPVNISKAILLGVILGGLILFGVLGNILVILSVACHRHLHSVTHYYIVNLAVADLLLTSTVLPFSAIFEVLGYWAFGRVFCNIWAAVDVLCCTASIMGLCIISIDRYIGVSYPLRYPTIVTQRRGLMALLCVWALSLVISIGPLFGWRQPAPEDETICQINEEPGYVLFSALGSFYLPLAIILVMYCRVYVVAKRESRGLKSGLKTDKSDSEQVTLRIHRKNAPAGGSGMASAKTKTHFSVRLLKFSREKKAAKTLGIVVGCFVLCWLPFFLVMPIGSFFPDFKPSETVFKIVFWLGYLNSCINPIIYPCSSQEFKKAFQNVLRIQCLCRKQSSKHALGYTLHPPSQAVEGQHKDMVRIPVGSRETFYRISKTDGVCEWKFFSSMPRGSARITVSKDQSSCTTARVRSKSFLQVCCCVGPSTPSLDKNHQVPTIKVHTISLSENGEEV

[4] = molecular target: T4, Alpha-1D adrenergic receptor (Homo sapiens, UniProt P25100); assay: Activation of human Alpha-1D adrenergic receptors expressed in rat-1 fibroblasts; assay type: functional
T4 sequence (P25100 whole entry): T1 sequence (whole entry)

[5] = molecular target: T5, Alpha-1A adrenergic receptor (Homo sapiens) (UniProt P35348); assay: Activation of human alpha-1A adrenergic receptor expressed in rat-1 fibroblasts; expressed as a percent of the maximal effect of the phenylephrine; assay type: functional
T5 sequence (whole entry): T3 sequence (P35348 whole entry)

[6] = molecular target: T6, Adrenergic receptor alpha-1 (Rattus norvegicus, UniProt P15823+P23944+P43140); assay: Inhibition of binding of [3H]-prazosin at alpha1 adrenoceptors isolated from rat brain
T6 sequence (P15823 whole entry): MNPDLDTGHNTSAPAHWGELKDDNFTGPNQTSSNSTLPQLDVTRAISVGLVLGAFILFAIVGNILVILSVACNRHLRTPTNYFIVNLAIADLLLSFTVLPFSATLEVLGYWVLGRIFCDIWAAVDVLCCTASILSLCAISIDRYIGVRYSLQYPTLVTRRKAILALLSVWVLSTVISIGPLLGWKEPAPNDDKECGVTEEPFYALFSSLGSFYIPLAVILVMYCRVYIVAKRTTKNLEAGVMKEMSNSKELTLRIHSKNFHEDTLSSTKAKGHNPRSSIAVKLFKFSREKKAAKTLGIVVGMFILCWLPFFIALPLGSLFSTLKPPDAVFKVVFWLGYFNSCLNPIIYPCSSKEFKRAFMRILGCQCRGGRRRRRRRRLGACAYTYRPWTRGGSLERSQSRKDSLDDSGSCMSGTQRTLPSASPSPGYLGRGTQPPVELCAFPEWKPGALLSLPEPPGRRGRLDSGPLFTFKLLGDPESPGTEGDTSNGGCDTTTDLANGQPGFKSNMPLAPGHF
T6 sequence (P23944 whole entry): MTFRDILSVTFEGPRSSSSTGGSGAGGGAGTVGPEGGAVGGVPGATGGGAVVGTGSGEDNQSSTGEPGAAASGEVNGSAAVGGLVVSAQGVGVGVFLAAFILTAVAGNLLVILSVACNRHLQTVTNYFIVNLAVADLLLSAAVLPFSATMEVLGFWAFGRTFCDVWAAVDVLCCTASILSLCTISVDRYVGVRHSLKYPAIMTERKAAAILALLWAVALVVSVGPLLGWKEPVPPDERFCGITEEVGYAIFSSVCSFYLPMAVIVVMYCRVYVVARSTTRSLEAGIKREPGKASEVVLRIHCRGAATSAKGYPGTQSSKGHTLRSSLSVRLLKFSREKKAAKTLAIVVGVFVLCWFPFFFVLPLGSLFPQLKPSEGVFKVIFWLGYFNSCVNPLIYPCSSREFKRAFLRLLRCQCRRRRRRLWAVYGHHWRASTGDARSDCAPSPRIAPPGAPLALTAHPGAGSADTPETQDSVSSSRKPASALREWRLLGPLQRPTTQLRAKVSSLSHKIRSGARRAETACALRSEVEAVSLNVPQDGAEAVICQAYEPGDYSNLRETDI
T6 sequence (P43140 whole entry): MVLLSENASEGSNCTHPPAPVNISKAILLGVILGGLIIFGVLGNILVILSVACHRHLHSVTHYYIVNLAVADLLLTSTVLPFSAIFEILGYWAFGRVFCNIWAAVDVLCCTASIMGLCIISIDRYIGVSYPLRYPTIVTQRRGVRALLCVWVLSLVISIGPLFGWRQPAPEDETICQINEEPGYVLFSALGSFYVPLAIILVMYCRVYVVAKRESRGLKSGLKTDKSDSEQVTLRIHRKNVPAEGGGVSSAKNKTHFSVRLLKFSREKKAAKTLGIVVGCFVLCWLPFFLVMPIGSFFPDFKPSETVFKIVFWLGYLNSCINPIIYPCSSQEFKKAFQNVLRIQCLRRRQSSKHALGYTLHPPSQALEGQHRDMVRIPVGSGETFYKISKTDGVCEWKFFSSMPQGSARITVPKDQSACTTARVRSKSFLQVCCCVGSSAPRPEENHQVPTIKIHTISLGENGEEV

[7] = molecular target: T7, Alpha-1B adrenergic receptor (Homo sapiens) (UniProt P35368); assay: Activation of human alpha-1B-adrenoceptor receptors expressed in rat-1 fibroblasts as percent maximal effect relative to phenylephrine; assay type: functional
T7 sequence (whole entry): T2 sequence (P35368 whole entry)

[8] = molecular target: T4, Alpha-1D adrenergic receptor; assay: In vitro binding affinity against cloned human alpha-1D-adrenoceptor receptors expressed in rat-1 fibroblasts
[9] = Acid dissociation constant for the compound was determined; assay type: ADME
[10] = molecular target: T2, Alpha-1B adrenergic receptor; assay: In vitro binding affinity against cloned human alpha-1B-adrenoceptor receptors expressed in rat-1 fibroblasts
[11] = molecular target: T3, Alpha-1A adrenergic receptor; assay: In vitro binding affinity against cloned human alpha-1A-adrenoceptor receptors expressed in rat-1 fibroblasts

Compound	Max [1]	EC50 [2]	EC50 [3]	EC50 [4]	Max [5]	IC50 [6]	Max [7]	IC50 [8]	pKa [9]	IC50 [10]	IC50 [11]
Oc1ccc2cccc(NCC3=NCCN3)c2c1	53%	> 5010 nM	6.31 nM	31.6 nM	110%						
CS(=O)(=O)c1ccccc1NCc1c[nH]cn1		> 100000 nM	126 nM	> 100000 nM	97%						
c1ccc(N2CCCCC2)c(NCc2c[nH]cn2)c1		> 5010 nM	50.1 nM	> 5010 nM	95%						
Cc1ccc(C)c(OCc2c[nH]cn2)c1						102 nM					
CSc1ccccc1NCC1=NCCN1	55%	2 nM	5.01 nM	7.94 nM	105%		105%	19.5 nM	10.3	219 nM	107 nM
c1ccc(-c2ccno2)c(OCc2c[nH]cn2)c1		> 100000 nM	158 nM	> 100000 nM	91%						
c1ccc(-c2cnco2)c(NCC2=NCCN2)c1		> 5010 nM	20 nM	> 5010 nM	107%						
c1ccc(-c2ccccc2OCC2=NCCN2)nc1					104%						
c1ccc(-c2ccccc2OCC2=NCCN2)cc1					96%			550 nM		2400 nM	66.1 nM
COc1ccc(S(C)(=O)=O)c(NCC2=NCCN2)c1		> 100000 nM	12.6 nM	> 100000 nM							
CCN(CC)C(=O)c1ccccc1OCC1=NCCN1		> 100000 nM	> 100000 nM	> 100000 nM				> 30200 nM		> 30200 nM	> 30200 nM
Clc1cccc(Cl)c1NCc1c[nH]cn1						263 nM					
CCN(CC)C(=O)c1ccccc1OCc1c[nH]cn1		> 100000 nM	> 100000 nM	> 100000 nM				> 30200 nM		> 30200 nM	> 30200 nM
c1ccc(-c2ccno2)c(OCC2=NCCN2)c1	34%	100 nM	6.31 nM	100 nM	91%		81%				
Oc1ccc2cccc(NCc3c[nH]cn3)c2c1		> 5010 nM	63.1 nM	> 5010 nM	100%						
c1ccc(-c2ccccc2OCc2c[nH]cn2)cc1		> 100000 nM	15.8 nM	> 100000 nM	102%			933 nM		5890 nM	302 nM
CCCNC(=O)c1ccccc1NCC1=NCCN1								513 nM		1700 nM	282 nM
CCCNC(=O)c1ccccc1NCc1c[nH]cn1	77%	316 nM	3.98 nM	79.4 nM	100%		89%	871 nM		3020 nM	77.6 nM
CCN(CC)C(=O)c1ccccc1NCc1c[nH]cn1		> 5010 nM	63.1 nM	> 5010 nM	114%						
CS(=O)(=O)c1ccccc1NCC1=NCCN1		> 100000 nM	50.1 nM	> 100000 nM	105%						
CSc1ccccc1NCc1c[nH]cn1	36%				94%		78%				
c1ccc(-c2cnco2)c(NCc2c[nH]cn2)c1	51%	> 5010 nM	50.1 nM	> 251 nM	120%						
c1ccc(N2CCCCC2)c(NCC2=NCCN2)c1		> 5010 nM	12.6 nM	> 5010 nM	114%						
CSc1ccccc1NCc1cnc[nH]1		25.1 nM	10 nM	20 nM				57.5 nM	6.5	891 nM	170 nM
